In US20250019378A1, “PYRROLE[2,3-B]PYRIDINE DERIVATIVES AS TYRO3 INHIBITORS” (HALIA THERAPEUTICS, INC., priority 2021, published 2025):

Molecular target: recombinant human Tyro3 (Homo sapiens (Human), UniProt Q06418)
Assay: Tyro3 Enzymatic Assay
Assay type: biochemical
Conditions: radiometric [32P]-ATP kinase assay, Poly(Glu, Tyr) substrate, 2 nM enzyme
Protocol: Poly(Glu, Tyr) sodium salt (Glu:Tyr (4:1), quality level 200, molecular weight 5,000-20,000, obtained from Sigma Aldrich, catalogue #P7244, assay concentration 0.20 mg/mL) and recombinant human Tyro3 (obtained from ThermoFisher Scientific, catalogue #PV3828, assay concentration 2 nM) were mixed in assay buffer (20 mM Hepes pH 7.5, 10 mM MgCl2, […] EGTA, 0.02% Brij35, 0.02 mg/ml BSA, 0.1 mM Na3VO4, 2 mM DTT, 1% DMSO, with added MnCl2 at a final concentration of 2 mM). Compounds of interest (in DMSO, serial 3-fold dilution from 10 μM to 0.5 nM) or control (1% DMSO) were dispensed into the kinase reaction mixture by Acoustic technology (Echo550; nanoliter range). After incubation at room temperature for 20 minutes, the kinase reaction was initiated by addition of [^32P]-ATP (Specific activity 10 μCi/μL) and the mixture was incubated at room temperature for 2 hours. The reaction was then stopped by spotting the reaction mixture on strips of phosphocellulose P81 paper. Following washing, the radioactivity of the P81 paper was measured and kinase activity data were expressed as the percent remaining kinase activity in test samples compared to vehicle (dimethyl sulfoxide) reactions. IC50 values and curve fits were obtained using Prism (GraphPad Software).

Sequence of recombinant human Tyro3 (Q06418 41-890): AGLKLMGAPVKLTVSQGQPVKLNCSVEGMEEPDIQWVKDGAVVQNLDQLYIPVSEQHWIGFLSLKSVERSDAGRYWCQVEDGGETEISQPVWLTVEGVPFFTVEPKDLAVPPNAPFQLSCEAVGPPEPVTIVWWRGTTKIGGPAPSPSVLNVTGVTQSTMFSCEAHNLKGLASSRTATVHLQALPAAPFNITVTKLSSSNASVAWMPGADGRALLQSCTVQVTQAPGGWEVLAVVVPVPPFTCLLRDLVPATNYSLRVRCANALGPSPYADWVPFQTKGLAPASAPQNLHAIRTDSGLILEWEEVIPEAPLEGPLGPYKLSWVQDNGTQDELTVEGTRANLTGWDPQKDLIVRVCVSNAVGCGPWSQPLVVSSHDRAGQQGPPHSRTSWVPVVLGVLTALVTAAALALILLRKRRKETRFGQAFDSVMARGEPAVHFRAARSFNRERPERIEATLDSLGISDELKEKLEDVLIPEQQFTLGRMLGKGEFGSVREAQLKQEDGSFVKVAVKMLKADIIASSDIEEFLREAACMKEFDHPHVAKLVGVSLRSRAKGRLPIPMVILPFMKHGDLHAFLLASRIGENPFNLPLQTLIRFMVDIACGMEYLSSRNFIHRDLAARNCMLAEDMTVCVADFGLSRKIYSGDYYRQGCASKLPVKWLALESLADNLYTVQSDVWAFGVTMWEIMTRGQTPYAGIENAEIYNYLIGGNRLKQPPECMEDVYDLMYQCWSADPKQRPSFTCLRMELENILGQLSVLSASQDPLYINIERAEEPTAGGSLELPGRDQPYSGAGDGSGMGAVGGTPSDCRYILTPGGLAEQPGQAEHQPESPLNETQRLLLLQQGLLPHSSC

Row | IC50 | Compound
1 | 151 to 501 nM | CCc1[nH]c2ncc(-c3cn(C4CCN(C)CC4)nc3Cl)cc2c1-c1cccc(F)c1 [Compound 26, 5-(3-chloro-1-(1-methylpiperidin-4-yl)-1H-pyrazol-4-yl)-2-ethyl-3-(3-fluorophenyl)-1H-pyrrolo[2,3-b]pyridine]
2 | > 500 nM | COc1nn(C2CCN(C(C)=O)CC2)cc1-c1cnc2[nH]cc(-c3cccc(F)c3)c2c1 [Compound 30, 1-(4-(4-(3-(3-fluorophenyl)-1H-pyrrolo[2,3-b]pyridin-5-yl)-3-methoxy-1H-pyrazol-1-yl)piperidin-1-yl)ethan-1-one]
